# In PubChem BioAssay (NCI):
#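 All cell lines were grown in 96-well plates and treated with compound for 48 hours. The concentration for full growth arrest is given as TGI.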
# Tests used:
# Experiment in all cases: DTP human tumour cell line panel, 48 h
# [1] = tested on: 786-0 renal
# [2] = tested on: A549 NSCLC
# [3] = tested on: ACHN renal
# [4] = tested on: CCRF-CEM leukemia
# [5] = tested on: COLO 205 colon
# [6] = tested on: DLD-1 colon
# [7] = tested on: DMS 114 small cell lung
# [8] = tested on: DMS 273 small cell lung
# [9] = tested on: EKVX NSCLC
# [10] = tested on: HCC-2998 colon
# [11] = tested on: HCT-116 colon
# [12] = tested on: HCT-15 colon
# [13] = tested on: HL-60(TB) leukemia
# [14] = tested on: HOP-18 NSCLC
# [15] = tested on: HOP-92 NSCLC
# [16] = tested on: HT29 colon
# [17] = tested on: IGROV1 ovarian
# [18] = tested on: K-562 leukemia
# [19] = tested on: KM12 colon
# [20] = tested on: KM20L2 colon
# [21] = tested on: LOX IMVI melanoma
# [22] = tested on: LXFL 529 NSCLC
# [23] = tested on: M14 melanoma
# [24] = tested on: M19-MEL melanoma
# [25] = tested on: MALME-3M melanoma
# [26] = tested on: MOLT-4 leukemia
# [27] = tested on: NCI-H226 lung
# [28] = tested on: NCI-H23 lung
# [29] = tested on: NCI-H460 lung
# [30] = tested on: NCI-H522 lung
# [31] = tested on: OVCAR-3 ovarian
# [32] = tested on: OVCAR-4 ovarian
# [33] = tested on: OVCAR-5 ovarian
# [34] = tested on: OVCAR-8 ovarian
# [35] = tested on: RPMI-8226 leukemia
# [36] = tested on: RXF 393 renal
# [37] = tested on: SF-268 CNS
# [38] = tested on: SF-295 CNS
# [39] = tested on: SF-539 CNS
# [40] = tested on: SK-MEL-2 melanoma
# [41] = tested on: SK-MEL-28 melanoma
# [42] = tested on: SK-MEL-5 melanoma
# [43] = tested on: SK-OV-3 ovarian
# [44] = tested on: SN12C renal
# [45] = tested on: SNB-19 CNS
# [46] = tested on: SNB-75 CNS
# [47] = tested on: SNB-78 CNS
# [48] = tested on: SR leukemia
# [49] = tested on: SW-620 colon
# [50] = tested on: TK-10 renal
# [51] = tested on: U251 CNS
# [52] = tested on: UACC-257 melanoma
# [53] = tested on: UACC-62 melanoma
# [54] = tested on: UO-31 renal
# [55] = tested on: XF 498 CNS
# [56] = tested on: A498 renal
# [57] = tested on: CAKI-1 renal
# [58] = tested on: HOP-62 NSCLC
compound,measurement,setting,value
COc1ccc(CC#C/C=C/C(=O)NCC(C)C)cc1,TGI,[1],> 100 µM
same,TGI,[2],> 100 µM
same,TGI,[3],> 100 µM
same,TGI,[4],> 100 µM
same,TGI,[5],> 100 µM
same,TGI,[6],> 100 µM
same,TGI,[7],> 100 µM
same,TGI,[8],> 100 µM
same,TGI,[9],> 100 µM
same,TGI,[10],> 100 µM
same,TGI,[11],> 100 µM
same,TGI,[12],> 100 µM
same,TGI,[13],> 100 µM
same,TGI,[14],> 100 µM
same,TGI,[15],> 100 µM
same,TGI,[16],> 100 µM
same,TGI,[17],> 100 µM
same,TGI,[18],> 100 µM
same,TGI,[19],> 100 µM
same,TGI,[20],> 100 µM
same,TGI,[21],> 100 µM
same,TGI,[22],> 100 µM
same,TGI,[23],> 100 µM
same,TGI,[24],> 100 µM
same,TGI,[25],> 100 µM
same,TGI,[26],> 100 µM
same,TGI,[27],> 100 µM
same,TGI,[28],> 100 µM
same,TGI,[29],> 100 µM
same,TGI,[30],> 100 µM
same,TGI,[31],> 100 µM
same,TGI,[32],> 100 µM
same,TGI,[33],> 100 µM
same,TGI,[34],> 100 µM
same,TGI,[35],> 100 µM
same,TGI,[36],> 100 µM
same,TGI,[37],> 100 µM
same,TGI,[38],> 100 µM
same,TGI,[39],> 100 µM
same,TGI,[40],> 100 µM
same,TGI,[41],> 100 µM
same,TGI,[42],> 100 µM
same,TGI,[43],> 100 µM
same,TGI,[44],> 100 µM
same,TGI,[45],> 100 µM
same,TGI,[46],> 100 µM
same,TGI,[47],> 100 µM
same,TGI,[48],> 100 µM
same,TGI,[49],> 100 µM
same,TGI,[50],> 100 µM
same,TGI,[51],> 100 µM
same,TGI,[52],> 100 µM
same,TGI,[53],> 100 µM
same,TGI,[54],> 100 µM
same,TGI,[55],> 100 µM
O=[N+]([O-])c1ccc(C2=Nn3c(nnc3-c3ccccc3)SC2)o1,TGI,[1],40.7 µM
same,TGI,[56],> 100 µM
same,TGI,[2],> 100 µM
same,TGI,[3],33.8 µM
same,TGI,[57],35 µM
same,TGI,[4],20.2 µM
same,TGI,[5],49.9 µM
same,TGI,[6],30.2 µM
same,TGI,[7],38.8 µM
same,TGI,[8],48.7 µM
same,TGI,[9],> 100 µM
same,TGI,[10],35.7 µM
same,TGI,[11],35.6 µM
same,TGI,[12],38.2 µM
same,TGI,[13],37.8 µM
same,TGI,[14],34.8 µM
same,TGI,[58],> 100 µM
same,TGI,[15],34.1 µM
same,TGI,[16],52.8 µM
same,TGI,[17],47.6 µM
same,TGI,[18],> 100 µM
same,TGI,[19],42.4 µM
same,TGI,[20],53.5 µM
same,TGI,[22],29.9 µM
same,TGI,[23],32 µM
same,TGI,[24],41.1 µM
same,TGI,[25],47.5 µM
same,TGI,[26],70.8 µM
same,TGI,[27],> 100 µM
same,TGI,[28],42.8 µM
same,TGI,[29],41.6 µM
same,TGI,[31],31.8 µM
same,TGI,[32],41.5 µM
same,TGI,[33],65.8 µM
same,TGI,[34],45.9 µM
same,TGI,[35],> 100 µM
same,TGI,[36],53.5 µM
same,TGI,[37],42.8 µM
same,TGI,[38],31.8 µM
same,TGI,[39],39 µM
same,TGI,[40],49 µM
same,TGI,[41],> 100 µM
same,TGI,[42],32.6 µM
same,TGI,[43],> 100 µM
same,TGI,[44],32.4 µM
same,TGI,[45],> 100 µM
same,TGI,[46],38.9 µM
same,TGI,[47],44.7 µM
same,TGI,[49],40.5 µM
same,TGI,[50],34.5 µM
same,TGI,[51],33.7 µM
same,TGI,[52],36.5 µM
same,TGI,[53],36.3 µM
same,TGI,[55],38.9 µM
O/N=C1/C(=C/c2ccc(Cl)c(Cl)c2)CCCC1C(NO)c1ccc(Cl)c(Cl)c1 (stereo unspecified),TGI,[1],42.4 µM
same,TGI,[56],27.4 µM
same,TGI,[2],41.3 µM
same,TGI,[3],33 µM
same,TGI,[57],34 µM
same,TGI,[4],46.1 µM
same,TGI,[5],35.7 µM
same,TGI,[6],37 µM
same,TGI,[7],37.3 µM
same,TGI,[8],36 µM
same,TGI,[9],42.9 µM
same,TGI,[10],36.8 µM
same,TGI,[11],30.3 µM
same,TGI,[12],37.2 µM
same,TGI,[13],39 µM
same,TGI,[14],30.5 µM
same,TGI,[58],48.2 µM
same,TGI,[16],32.1 µM
same,TGI,[17],38.5 µM
same,TGI,[18],63.6 µM
same,TGI,[19],31.9 µM
same,TGI,[20],35.3 µM
same,TGI,[22],29.5 µM
same,TGI,[23],34.6 µM
same,TGI,[24],33.8 µM
same,TGI,[25],44.4 µM
same,TGI,[26],33.8 µM
same,TGI,[28],35.6 µM
same,TGI,[29],40 µM
same,TGI,[30],25 µM
same,TGI,[31],27.8 µM
same,TGI,[32],26.7 µM
same,TGI,[34],36.7 µM
same,TGI,[35],53.6 µM
same,TGI,[36],43.3 µM
same,TGI,[37],45.7 µM
same,TGI,[39],33.2 µM
same,TGI,[40],38.5 µM
same,TGI,[41],34.5 µM
same,TGI,[42],35.3 µM
same,TGI,[43],39.1 µM
same,TGI,[44],35.2 µM
same,TGI,[45],33.1 µM
same,TGI,[46],31.1 µM
same,TGI,[47],37.7 µM
same,TGI,[49],36 µM
same,TGI,[50],36.3 µM
same,TGI,[51],34.2 µM
same,TGI,[52],34.1 µM
same,TGI,[53],35 µM
same,TGI,[54],35.7 µM
same,TGI,[55],33.9 µM
CCOc1ccc(N=Nc2ccc3oc(=O)c(/C(C)=N/NC(=O)CC(=O)Nc4cccc(OC)c4)cc3c2)cc1,TGI,[1],22.3 µM
same,TGI,[2],> 74.6 µM
same,TGI,[3],51.6 µM
same,TGI,[57],> 45.4 µM
same,TGI,[4],21.6 µM
same,TGI,[5],78.3 µM
same,TGI,[6],45.5 µM
same,TGI,[7],44.5 µM
same,TGI,[8],> 71.2 µM
same,TGI,[9],55.5 µM
same,TGI,[10],30.2 µM
same,TGI,[11],33.7 µM
same,TGI,[12],> 86.3 µM
same,TGI,[13],16.1 µM
same,TGI,[14],74.4 µM
same,TGI,[58],31.7 µM
same,TGI,[15],47.4 µM
same,TGI,[17],65.4 µM
same,TGI,[18],86.5 µM
same,TGI,[19],> 56.9 µM
same,TGI,[20],> 31.6 µM
same,TGI,[21],60.5 µM
same,TGI,[22],33.5 µM
same,TGI,[23],77.3 µM
same,TGI,[24],> 88.1 µM
same,TGI,[25],37.5 µM
same,TGI,[26],> 56 µM
same,TGI,[27],> 73 µM
same,TGI,[28],33.4 µM
same,TGI,[29],46.3 µM
same,TGI,[30],72.4 µM
same,TGI,[31],37 µM
same,TGI,[32],52.6 µM
same,TGI,[33],> 70.3 µM
same,TGI,[34],> 61.4 µM
same,TGI,[35],53.7 µM
same,TGI,[36],38.1 µM
same,TGI,[37],52.5 µM
same,TGI,[38],53.8 µM
same,TGI,[39],51 µM
same,TGI,[40],45.7 µM
same,TGI,[41],92 µM
same,TGI,[42],58.4 µM
same,TGI,[43],82.3 µM
same,TGI,[44],30.8 µM
same,TGI,[45],> 79 µM
same,TGI,[47],> 95.9 µM
same,TGI,[48],10.1 µM
same,TGI,[49],85.1 µM
same,TGI,[50],> 100 µM
same,TGI,[51],17.1 µM
same,TGI,[52],22 µM
same,TGI,[53],39.7 µM
same,TGI,[54],29.5 µM
same,TGI,[55],42 µM
